Reference: patent publication US20250042879A1, “HETEROCYCLIC SUBSTITUTED 1,3,4-THIADIAZOLE AND PYRIDAZINE COMPOUNDS AND METHODS OF USING THE SAME” (Rgenta Therapeutics, Inc., priority 2021, published 2025)
Counter-ions that a name gives are not always drawn.

system: HTT; experiment: Mini-gene reporter assay-HTT (firefly luciferase, exon inclusion); type: cell-based; details: HTT Minigene, 5 μM; read-out: % Efficacy at 5 μM
Text: Mini-gene reporter constructs for each target site were constructed by first PCR amplifying the region-of-interest including the sequence of the alternatively skipped, sequences of the immediate upstream and downstream introns, and sequences of the immediate upstream and downstream exons. Then the 3′end of the amplified sequence was ligated to a firefly luciferase reporter gene and cloned into the pcDNA3.1 vector backbone. The final reporter construct was transiently transfected into HEK293 cells using Lipofectamine 3000 transfection reagents. Compounds that can induce the inclusion of the skipped exon in the reporter construct would increase the reporter firefly luciferase activity.
Test compounds were diluted in duplicates and dispensed into an assay plate. Transient mini-gene reporter cell line stock was resuspended and dispensed into the assay plate. Assay plates were then centrifuged and incubated. A luciferase reagent (e.g. ONE-Glo firefly luciferase reagent from Promega®) was added to the assay plate and the luminescence (RLU) signals recorded. EC50 values were determined by curve fitting in Levenberg-Marquardt algorithm.

Row | SMILES | Emax at 5 µM
1 | Cc1cn2cc(-c3ccc(-c4ccc(C5CN(C(C)C6CCCO6)C5)nn4)c(O)c3)cc(F)c2n1 (stereo not drawn) [Compound 95] | > 750%
2 | Cc1cn2cc(-c3ccc(-c4ccc(C5CN(C6CCCOCC6)C5)nn4)c(O)c3)cc(F)c2n1 (stereo not drawn) [Compound 99] | > 750%
3 | COc1cc(-c2ccc(-c3ccc(C4CN(C(C)C5CCOCC5)C4)nn3)c(O)c2)cc2cn(C)nc12 (stereo not drawn) [Compound 156] | > 750%
4 | Cc1cn2cc(-c3ccc(-c4ccc(C5CN(C(C)Cn6cncn6)C5)nn4)c(O)c3)cc(F)c2n1 (stereo not drawn) [Compound 120] | < 25%
5 | COc1cc(-c2ccc(-c3ccc(C4CN(Cc5ccc(CO)cc5)C4)nn3)c(O)c2)cc2cn(C)nc12 [Compound 181] | 25 to 75%
6 | COc1cc(-c2ccc(-c3ccc(C4CN(C5CCCSCC5)C4)nn3)c(O)c2)cc2cn(C)nc12 (stereo not drawn) [Compound 183] | > 750%
7 | COc1cc(-c2ccc(-c3ccc(C4CN(C(C)Cc5cnccn5)C4)nn3)c(O)c2)cc2cn(C)nc12 (stereo not drawn) [Compound 173] | 25 to 75%
8 | COCC(C)CN1CC(c2ccc(-c3ccc(-c4cc(F)c5nc(C)cn5c4)cc3O)nn2)C1 (stereo not drawn) [Compound 104] | 25 to 75%
9 | COc1cc(-c2ccc(-c3ccc(C4CN(C5CCCSC5)C4)nn3)c(O)c2)cc2cn(C)nc12 (stereo not drawn) [Compound 142] | 25 to 75%
10 | Cc1cn2cc(-c3ccc(-c4ccc(C5CN(C(C)CCn6cccn6)C5)nn4)c(O)c3)cc(F)c2n1 (stereo not drawn) [Compound 107] | 25 to 75%
11 | CCC(C)(CN1CC(c2ccc(-c3ccc(-c4cc(OC)c5nn(C)cc5c4)cc3O)nn2)C1)OC (stereo not drawn) [Compound 178] | < 25%
12 | Cc1cn2cc(-c3ccc(-c4ccc(C5CN(CC6CCSCC6)C5)nn4)c(O)c3)cc(F)c2n1 [Compound 109] | > 750%
13 | CCOC1CC(N2CC(c3ccc(-c4ccc(-c5cc(OC)c6nn(C)cc6c5)cc4O)nn3)C2)C1 (stereo not drawn) [Compound 163] | 25 to 75%
14 | Cc1cn2cc(-c3ccc(-c4ccc(C5CN(Cc6cnn(C)n6)C5)nn4)c(O)c3)cc(F)c2n1 [Compound 117] | 25 to 75%

same assay, conditions: Homo sapiens; HTT mini-gene firefly luciferase reporter transiently transfected into HEK293 cells

Row | SMILES | EC50
15 | Cc1cn2nc(-c3ccc(-c4ccc(C5CN(C)C5)nn4)c(O)c3)ccc2n1 [Compound 37, 2-[6-(1-methylazetidin-3-yl)pyridazin-3-yl]-5-{2-methylimidazo[1,2-b]pyridazin-6-yl}phenol] | 50 to 500 nM
16 | Cc1cc2cc(-c3ccc(-c4ccc(C5CN(C)C5)nn4)c(O)c3)cc(C)n2n1 [Compound 40, 5-{2,7-dimethylpyrazolo[1,5-a]pyridin-5-yl}-2-[6-(1-methylazetidin-3-yl)pyridazin-3-yl]phenol] | 500 to 1000 nM
17 | Cc1cn2nc(-c3ccc(-c4ccc(C5CN(C6CCOCC6)C5)nn4)c(O)c3)cc(C)c2n1 [Compound 64, 5-(2,8-dimethylimidazo[1,2-b]pyridazin-6-yl)-2-(6-(1-(tetrahydro-2H-pyran-4-yl)azetidin-3-yl)pyridazin-3-yl)phenol hydrochloride] | 500 to 1000 nM
18 | COc1nc(-c2ccc(-c3ccc(C4CN(C5CCOCC5)C4)nn3)c(O)c2)cc2cn(C)nc12 [Compound 58, 5-{7-methoxy-2-methyl-2H-pyrazolo[3,4-c]pyridin-5-yl}-2-{6-[1-(oxan-4-yl)azetidin-3-yl]pyridazin-3-yl}phenol] | 50 to 500 nM
19 | Cn1cc2nc(-c3ccc(-c4ccc(C5CN(C6CCOCC6)C5)nn4)c(O)c3)ccc2n1 [Compound 51, 5-{2-methyl-2H-pyrazolo[4,3-b]pyridin-5-yl}-2-{6-[1-(oxan-4-yl)azetidin-3-yl]pyridazin-3-yl}phenol] | 500 to 1000 nM
20 | Cc1cc2cc(-c3ccc(-c4ccc(C5CN(C6CCOCC6)C5)nn4)c(O)c3)ccn2n1 [Compound 192, 5-(2-methylpyrazolo[1,5-a]pyridin-5-yl)-2-(6-(1-(tetrahydro-2H-pyran-4-yl)azetidin-3-yl)pyridazin-3-yl)phenol 2,2,2-trifluoroacetate] | ≥ 1000 nM
21 | Cc1cn2nc(-c3ccc(-c4ccc(C5CNC5)nn4)c(O)c3)cc(C)c2n1 [Compound 3, 2-[6-(azetidin-3-yl)pyridazin-3-yl]-5-{2,8-dimethylimidazo[1,2-b]pyridazin-6-yl}phenol] | 50 to 500 nM
